Laboratory results taken from US6525059B1, “Substituted pyrazoles as p38 kinase inhibitors” (G. D. Searle & Company, priority 1998, dated 2003).
Values joined by “and” are separate entries in the source; they are usually repeats but may differ in a detail not shown here. Equal entries are not always repeated. Structures can show the parent of a compound that is named as a salt. Where two headings read alike, the source gives them in different places. Blank lines part the entries; values can stand above or below the compound they belong to.

What was measured:
[1] = biological target: T1, human GST-p38 kinase alpha (Homo sapiens, UniProt Q16539); assay: p38 kinase in vitro assay, second format, phosphorylation of EGFRP with 33P-ATP; type: biochemical
T1 construct: The coding region of the human p38a cDNA was obtained by PCR-amplification from RNA isolated from the human monocyte cell line THP.1; made in house; host or cells: E. coli DH10B
T1 sequence (Q16539 whole entry): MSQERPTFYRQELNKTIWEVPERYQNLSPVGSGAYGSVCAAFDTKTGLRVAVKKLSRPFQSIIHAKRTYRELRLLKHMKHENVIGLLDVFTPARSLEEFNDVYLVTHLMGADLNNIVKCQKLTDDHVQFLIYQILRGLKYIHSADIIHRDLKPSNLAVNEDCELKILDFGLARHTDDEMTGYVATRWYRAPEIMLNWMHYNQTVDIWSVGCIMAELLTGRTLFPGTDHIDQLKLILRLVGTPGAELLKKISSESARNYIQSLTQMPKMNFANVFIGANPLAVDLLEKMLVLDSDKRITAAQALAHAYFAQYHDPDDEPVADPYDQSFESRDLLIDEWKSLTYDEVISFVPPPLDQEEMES
Description: A second assay format was also employed that is based on p38 kinase alpha induced phosphorylation of EGFRP (epidermal growth factor receptor peptide, a 21 mer) in the presence of ^33P-ATP. Compounds were tested in 10 fold serial dilutions over the range of 100 μM to 0.001 μM in 10% DMSO. Each concentration of inhibitor was tested in triplicate. Compounds were evaluated in 50 μl reaction volumes in the presence of 25 mM Hepes pH 7.5, 10 mM magnesium acetate, 4% glycerol, 0.4% bovine serum albumin, 0.4 mM DTT, 50 μM unlabeled ATP, 25 μg EGFRP (200 μM), and 0.05 uCi gamma ^33P-ATP. Reactions were initiated by addition of 0.09 μg of activated, purified human GST-p38 kinase alpha. Activation was carried out using GST-MKK6 (5:1, p38: MKK6) for one hour at 30° C. in the presence of 50 μM ATP. Following incubation for 60 minutes at room temperature, the reaction was stopped by addition of 150 μl of AG 1×8 resin in 900 mM sodium formate buffer, pH 3.0 (1 volume resin to 2 volumes buffer). The mixture was mixed three times with pipetting and the resin was allowed to settle. A total of 50 μl of clarified solution head volume was transferred from the reaction wells to Microlite-2 plates. 150 μl of Microscint 40 was then added to each well of the Microlite plate, and the plate was sealed, mixed, and counted.

TNF-α [2] = assay: LPS stimulation of TNF production by U937 cells; type: cell-based, human; conditions: Homo sapiens; for inhibition at 1 µM: U-937, @ 1.0 uM, read-out: U937 Cell % inhib @ conc.
How it was run: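 PMA-differentiated human U937 cells (20 ng/ml PMA, 24 h, then 24-48 h rest) at 2 million cells/ml, 0.1% DMSO final, stimulated with E. coli LPS (100 ng/ml final) for 4 h at 37° C. TNF-α in medium measured by ELISA; IC50 in μM.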

human p38 kinase alpha = biological target: T2, human p38 kinase alpha (Homo sapiens, UniProt Q16539); assay: p38 kinase in vitro assay, phosphorylation of biotinylated PHAS-I with gamma 32P-ATP; type: biochemical
T2 construct: The coding region of the human p38a cDNA was obtained by PCR-amplification from RNA isolated from the human monocyte cell line THP.1; GST (N); made in house; host or cells: E. coli DH10B
T2 sequence (Q16539 whole entry): as above
How it was run: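 Radiometric filter-capture read-out: streptavidin plates trap biotin-PHAS-I labelled by activated (MKK6) human p38α from γ-32P-ATP. Buffer 25 mM HEPES pH 7.5, 10 mM magnesium acetate, 50 μM cold ATP; reactions 1 h or overnight at 30 °C; inhibitors 10-fold dilutions 100 to 0.001 μM, triplicates, 1% DMSO.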

TNF-α [3] = assay: Rat assay: LPS-challenged rats, serum TNF-α by ELISA; type: in vivo; conditions: for inhibition in vivo at 5 mg/kg: 5 mpk oral gavage, read-out: Rat LPS Model % Inhibition @ dose @ predose time
Description: The efficacy of the novel compounds in blocking the production of TNF also was evaluated using a model based on rats challenged with LPS. Male Harlen Lewis rats [Sprague Dawley Co.] were used in this model. Each rat weighed approximately 300 g and was fasted overnight prior to testing. Compounds administration was typically by oral gavage (although intraperitoneal, subcutaneous and intravenous administration were also used in a few instances) 1 to 24 hours prior to the LPS challenge. Rats were administered 30 μg/kg LPS [salmonella typhosa, Sigma Co.] intravenously via the tail vein. Blood was collected via heart puncture 1 hour after the LPS challenge. Serum samples were stored at −20° C. until quantitative analysis of TNF-α by Enzyme Linked-Immuno-Sorbent Assay (“ELISA”) [Biosource]. Additional details of the assay are set forth in Perretti, M., et al., Br. J. Pharmacol. (1993), 110, 868-874, which is incorporated by reference in this application.
In vivo assessment of the ability of the compounds to inhibit LPS-stimulated TNF release in the rat is shown in the column identified as:
wherein in the dose is milligram per kilogram (mpk) administered by oral gavage and the predose time indicates the number of hours before LPS challenge when the compound is administered.

[4] = Table 8, 10% DMSO, read-out: p38α Kinase Assay IC50
[5] = Table 10, 10% DMSO, @ 1.0 hour, read-out: p38α Kinase Assay IC50
[6] = p38α in vitro, EGFRP assay procedure, read-out: p38^2 IC50
[7] = U-937, LPS-stimulated U937 cells, read-out: U937 IC50
[8] = p38α in vitro, PHAS-I assay procedure, read-out: p38^1 IC50
[9] = Rattus norvegicus, po, Table 8, dose 3.0 mg/kg, read-out: Rat LPS Assay % Inhibition
[10] = U-937, TNF production, LPS-stimulated human U937 cells, read-out: U937 Cell IC50
[11] = Rattus norvegicus, po, -4 h, 3 mpk oral gavage, -4h before LPS, read-out: Rat LPS Model % inhib @ dose @ predose time
[12] = read-out: P38 alpha kinase IC50
[13] = Rattus norvegicus, po, 4 h before LPS challenge

- IC50 [1, 5]: 1720 nM
Compound: Cc1cccc(C(=O)Cc2ccncc2)c1 [A-389, Step 1, 1-tolyl-2-(4-pyridyl)ethanone]

- IC50 [1, 6]: 104 nM
Compound: Cc1cccc(-c2nn(C)cc2-c2ccnc(C)c2)c1 [Example A-235, 2-methyl-4-[1-methyl-3 (or 5)-(3-methylphenyl)-1H-pyrazol-4-yl]pyridine]

- IC50 (TNF-α [2]; [7]): 402 nM
- IC50 [1, 6]: 177 nM
Compound: Cn1cc(-c2ccncc2)c(-c2cccc(C(F)(F)F)c2)n1 [Example A-238, 4-[1-methyl-3-[3-(trifluoromethyl)phenyl]-1H-pyrazol-4-yl]pyridine]

- IC50 [1, 6]: 99 nM
Compound: Fc1ccc(-c2n[nH]cc2-c2ccnc(/C=C/c3ccccc3)c2)cc1 [Example A-244, (E)-4-[3-(4-fluorophenyl)-1H-pyrazol-4-yl]-2-(2-phenylethenyl)pyridine]

- IC50 (TNF-α [2]; [7]): 495 nM
- IC50 [1, 6]: 592 nM
- IC50 (human p38 kinase alpha; [8]): 403 nM
Compound: COc1ccc(CNc2cc(-c3c[nH]nc3-c3ccc(Cl)cc3)ccn2)cc1 [Example A-246, 4-[3-(4-chlorophenyl)-1H-pyrazol-4-yl]-N-[(4-methoxy-phenyl)methyl]-2-pyridinamine]

- IC50 (TNF-α [2]; [7]): 166 nM
- IC50 [1, 6]: < 10 nM
Compound: Clc1ccc(-c2n[nH]cc2-c2ccnc(NCc3ccccn3)c2)cc1 [Example A-247, N-[4-[3-(4-chlorophenyl)-1H-pyrazol-4-yl]-2-pyridinyl]-2-pyridinemethanamine]

- IC50 [1, 6]: 2870 nM
Compound: Ic1ccc(-c2n[nH]cc2-c2ccncc2)cc1 [Example A-250, 4-[3-(4-iodophenyl)-1H-pyrazol-4-yl]pyridine]

- IC50 (TNF-α [2]; [7]): 141 nM
- IC50 [1, 6]: 81 nM
Compound: Fc1ccc(-c2n[nH]cc2-c2ccnc(NCc3cccc(F)c3)c2)cc1 [Example A-254, N-[(3-fluorophenyl)methyl]-4-[3-(4-fluorophenyl)-1H-pyrazol-4-yl]-2-pyridinamine]

- IC50 (TNF-α [2]; [7]): 456 nM
- IC50 [1, 6]: 813 nM
Compound: Cn1cc(-c2ccnc(F)c2)c(-c2ccc(F)cc2)n1 [Example A-256, 2-fluoro-4-[3-(4-fluorophenyl)-1-methyl-1H-pyrazol-4-yl]pyridine]

- IC50 (TNF-α [2]; [7]): 517 nM
- IC50 [1, 6]: < 10 nM
- IC50 (human p38 kinase alpha; [8]): 1080 nM
Compound: Fc1cc(-c2c[nH]nc2-c2ccc(F)c(F)c2)ccn1 [Example A-257, 4-[3-(3,4-difluorophenyl)-1H-pyrazol-4-yl]-2-fluoropyridine]

- IC50 [1, 4]: 1160 nM
Compound: COc1ccccc1N1CCN(c2n[nH]c(-c3ccc(Cl)cc3)c2-c2ccncc2)CC1 [Example A-336, 1-[5-(4-chlorophenyl)-4-(4-pyridinyl)-1H-pyrazol-3-yl]-4-(2-methoxyphenyl)piperazine]

- IC50 ([1]; Table 9, 10% DMSO, read-out: p38α Kinase Assay IC50): 180 nM and 1250 nM
Compound: C=CCn1cc(-c2ccncc2)c(-c2ccc(F)cc2)n1 [Example A-385, 4-[3-(4-fluorophenyl)-1-(2-propenyl)-1H-pyrazol-4-yl]pyridine, monohydrochloride]

- IC50 [1, 5]: > 100000 nM
Compound: O=C(C(=C1SCS1)c1ccncc1)c1ccc(OC(F)(F)F)cc1 [Example A-395]

- IC50 [1, 5]: 59000 nM
Compound: O=C(C(=C(SCC1OCCO1)SCC1OCCO1)c1ccncc1)c1ccc(F)cc1 [Example A-449]

- IC50 [1, 5]: 12900 nM
Compound: Sc1[nH]nc(-c2ccc(Cl)cc2)c1-c1ccncc1 [Example A-455]

- IC50 [1, 5]: 30600 nM
Compound: O=C(O)CSc1[nH]nc(-c2ccc(Cl)cc2)c1-c1ccncc1 [Example A-461]

- IC50 [1, 5]: 4920 nM
Compound: O=C(O)C(Cc1cnc[nH]1)Sc1[nH]nc(-c2ccc(Cl)cc2)c1-c1ccncc1 (stereo not shown) [Example A-471]

Further lines, the compound ahead of its results:

Compound: O=C(c1n[nH]c(-c2ccc(F)cc2)c1-c1ccncc1)N1CCNCC1 [A-314, Step 1, 1-[[5-(4-fluorophenyl)-4-(4-pyridinyl)-1H-pyrazol-3-yl]carbonyl]piperazine, monhydrate]
- IC50 [1, 4]: 370 nM

Compound: Clc1ccc(-c2n[nH]c(SC3CCNCC3)c2-c2ccncc2)cc1 [A-459 (salt)]
- IC50 [1, 5]: 100 nM

Compound: CS(=O)(=O)N1CCN(c2n[nH]c(-c3ccc(Cl)cc3)c2-c2ccncc2)CC1 [Example A-320, 1-[5-(4-chlorophenyl)-4-(4-pyridinyl)-1H-pyrazol-3-yl]-4-(methylsulfonyl)piperazine, monohydrate]
- inhibition in vivo at 3 mg/kg (TNF-α [3]; [9]): 1%
- IC50 [1, 4]: 50 nM and 150 nM

Compound: C#CCNc1nccc(-c2cn[nH]c2-c2ccc(F)cc2)n1 [Example A-324, 4-[3-(4-fluorophenyl)-1H-pyazol-4-yl]-N-2-propynyl-2-pyrimidinamine]
- inhibition in vivo at 3 mg/kg (TNF-α [3]; [9]): 44%
- IC50 [1, 4]: 80 nM

Compound: C[C@@H](NS(=O)(=O)Cc1ccccc1)c1[nH]nc(-c2ccc(F)cc2)c1-c1ccncc1 [Example B-0389]
- IC50 (TNF-α [2]; [10]): 50 nM
- inhibition in vivo at 3 mg/kg (TNF-α [3]; [11]): 62%
- IC50 (human p38 kinase alpha; [12]): 10 nM

Compound: CCOC(=O)N[C@H](C)c1[nH]nc(-c2ccc(F)cc2)c1-c1ccncc1 [Example B-0426]
- IC50 (TNF-α [2]; [10]): 740 nM
- inhibition in vivo at 3 mg/kg (TNF-α [3]; [11]): 41%
- IC50 (human p38 kinase alpha; [12]): 55 nM

Compound: C[C@@H](NS(=O)(=O)c1cccc(Br)c1)c1[nH]nc(-c2ccc(F)cc2)c1-c1ccncc1 [Example B-0455]
- inhibition at 1 µM (TNF-α [2]): 95%
- inhibition in vivo at 3 mg/kg (TNF-α [3]; [11]): 36%

Compound: C[C@@H](NS(=O)(=O)c1ccc(F)c(Cl)c1)c1[nH]nc(-c2ccc(F)cc2)c1-c1ccncc1 [Example B-0466]
- inhibition at 1 µM (TNF-α [2]): 98%
- inhibition in vivo at 3 mg/kg (TNF-α [3]; [11]): 0%

Compound: C[C@@H](NS(=O)(=O)c1ccc(C#N)cc1)c1[nH]nc(-c2ccc(F)cc2)c1-c1ccncc1 [Example B-0479]
- inhibition at 1 µM (TNF-α [2]): 90%
- inhibition in vivo at 3 mg/kg (TNF-α [3]; [11]): 15%
- IC50 (human p38 kinase alpha; [12]): 31 nM

Compound: C[C@@H](NS(=O)(=O)c1ccc(-c2ccccc2)cc1)c1[nH]nc(-c2ccc(F)cc2)c1-c1ccncc1 [Example B-0481]
- inhibition at 1 µM (TNF-α [2]): 95%
- inhibition in vivo at 3 mg/kg (TNF-α [3]; [11]): 56%
- IC50 (human p38 kinase alpha; [12]): 14 nM

Compound: O=C(C1CC1)N1CCC(c2[nH]nc(-c3ccc(F)cc3)c2-c2ccncc2)CC1 [Example B-1364]
- Rat LPS Model % inhib @ dose @ predose time (TNF-α [3]; 3 mpk oral gavage, 4 h before LPS challenge): 17% @ 3 mpk @ -4h

Compound: N[C@H]1CC[C@@H](c2[nH]nc(-c3cccc(Cl)c3)c2-c2ccncc2)CC1 [Example C-105, 5-cis-(4-AMINOCYCLOHEXYL)-4-(4-PYRIDYL)-3-(3-CHLOROPHENYL)PYRAZOLE]
- inhibition in vivo at 5 mg/kg (TNF-α [3]; [13]): 46%
- IC50 (human p38 kinase alpha; [12]): 33 nM

Compound: CN(C)CC(=O)N1CCC(c2[nH]nc(-c3ccc(Cl)cc3)c2-c2ccncc2)CC1 [Example C-122]
- inhibition in vivo at 5 mg/kg (TNF-α [3]; [13]): 55%
- IC50 (human p38 kinase alpha; [12]): 25 nM

Compound: CN1CCC(c2[nH]nc(-c3ccc(Cl)cc3)c2-c2ccncn2)CC1 [Example C-137]
- inhibition in vivo at 5 mg/kg (TNF-α [3]; [13]): 58%
- IC50 (human p38 kinase alpha; [12]): 51 nM

Compound: O=C(CO)N1CCC(c2[nH]nc(-c3ccc(Cl)cc3)c2-c2ccncn2)CC1 [Example D-1, N-(2-Hydroxyacetyl)-5-(4-piperidyl)-4-(4-pyrimidyl)-3-(4-chlorophenyl)pyrazole]
- inhibition in vivo at 1 mg/kg (TNF-α [3]; Rattus norvegicus, po, 1.0 mg/kg oral gavage, 4 hours before LPS challenge, read-out: ratLPS/% Inh @1.0 (mg/kg)): 83%
